Assay results published in patent publication US20240074473A1, “METHOD FOR INDUCING HYPERTROPHIC MUSCLE FIBERS FOR INDUSTRIAL MEAT PRODUCTION” (Yeda Research and Development Co. Ltd., priority 2021, published 2024).
Where two headings read alike, the source gives them in different places. Each block holds one compound with its values, some of them ahead of it.

Key:
[1] = tested on: primary chicken myoblasts; assay: Fusion index of primary chicken myoblasts (MyHC immunostaining); assay type: cell-based; settings: primary chicken myoblasts; for Fusion index in combination with ERK inhibitor vs ERK inhibitor alone: proliferation media; for Fusion index in combination with ERK inhibitor vs ERK inhibitor alone / Fusion index: 48 hours; for Fusion: 48 hours post treatment; for Fusion index: proliferation medium
Protocol: Chicken primary derived myoblasts were used as a model to evaluate the efficiency of SCH772984 as the ERKi, compared to conventional differentiation medium (DM) for the purpose of producing muscle (meat) in tissue culture conditions. Chicken myoblasts were isolated from chicken embryos and expanded in proliferation medium. When sufficient cell numbers were acquired, cells were seeded on tissue culture plates and allowed to adhere for 24 hours. Then medium was changed to either PM supplemented with ERKi or DM. At 24-hours post treatment, the cells that received ERKi were replenished with fresh PM (without the addition of more ERKi), and DM treated cells were replenished with fresh DM. Media was replaced daily over a period of 72 hours.
Evaluation of muscle fiber formation was achieved by fixing the cells and staining for expression of Myosin Heavy Chain (FIG. 9A). […] Yet, treatment with conventional DM only began to form fibers beginning at 72-hours post treatment. A fusion index was quantified at 72 hours post treatment (FIG. 9B), in which the percentage of total nuclei present in a myotube (MyHC positive cell with 2 or more nuclei).
Primary chicken myoblast isolation and treatment: chicken myoblasts were isolated from broiler chicken embryos at day 18 from breast and leg muscles by using Trypsin B. Following tissue dissociation, the cell suspension was grown for 3-4 days on 10% Matrigel coated plates. At the first passage, the cells were lifted and pre-plated twice for 30 minutes to enrich for myoblasts and reduce the number of fibroblasts. Then cells were seeded at 8,000/well of optical-96 well plates in proliferation medium. 24 hours after plating, media was aspirated and replaced with the indicated treatment conditions in proliferation media or differentiation media (as indicated). After 24 hours with treatment, the media was aspirated and all wells were replenished with fresh proliferation media or differentiation media without any treatment. This was repeated daily. Cells were fixed at 48 hours after treatment. Compounds were purchased from Cayman Chemicals.
Immunofluorescent staining: Cells were fixed with ice cold 4% PFA in PBS for 10 minutes, permeabilized with 0.5% Triton X-100 in PBS for 6 minutes, and blocked in PBS with 0.025% tween, 10% normal horse serum and 10% normal goat serum for 1 hour at room temperature. Primary antibody incubation was done in blocking buffer overnight at 4 degrees, with the following antibodies: Myosin Heavy Chain (MyHC, MF20, DSHB hybridoma supernatant 1:10, alpha-actinin (SIGMA A7811). Cells were washed 3 times in PBS with 0.025% tween and then incubated with appropriate secondary antibodies in PBS 1 hour. Nuclei were labeled with DAPI (SIGMA D9542, 5 ug/ml). All fusion indexes and imaging analysis were performed on at least 1000 per technical repeat.

[2] = Risk categorization of cell culture media ingredients
Text: Category 1: These cell culture media components are food ingredients/additives that are GRAS or permitted by federal regulation without limitation on use. Exemplary compounds in this category include innocuous ingredients such as sugars, pH buffers, water soluble vitamins, and common antioxidants such as tocopherols.
Category 2: These cell culture media components are common dietary nutrients and are anticipated to have GRAS status for food use or be permitted by regulation for addition to food. Examples of such compounds include most of the inorganic salts and macronutrients that are present within the cell culture media. […] Majority of nutrients present within the poultry cell-based meat may be readily measured using common validated methods for food composition testing. Batch analyses of multiple lots of the finished product may be obtained to validate the above assumptions. In some instances, consideration of established safe levels (e.g., ADI, UL) derived from a relevant authoritative body (e.g., U.S. FDA, EFSA, JECFA, FSANZ, U.S. EPA) may be leveraged to support safety. If comparisons of anticipated dietary intakes relative to an authoritative reference intake value is used, consideration of additive intakes from all dietary sources may be considered. In the absence of an authoritative reference intake value, published NOAELs from animal toxicology studies may be used to evaluate safety using standard scientific procedures for food safety evaluation. A margin of exposure (MoE) of 100-fold or greater between the NOAEL and estimated dietary intakes from food exposures is typically considered adequate to support safety. in situations where the MoE is <100-fold, additional measures for further reduction of the media component may be necessary, or further characterization of intraspecies/interspecies differences in metabolism may be necessary. These situations also require careful consideration of the regulatory status on a case-by basis (e.g., premarket approval as a food additive or GRAS evaluation required).
For example, situations where the compound is not detectable in finished product or is present at equivalent levels in comparator foods, compounds that are thermo-labile and will be digested during cooking, and/or compounds that are expected to be digested to innocuous compounds following ingestion. Examples of compounds meeting the aforementioned conditions would include recombinant growth factors and serum components. For Category 3 substances a final consideration in the safety assessment process may involve hazard characterization of the potential for a substance to produce toxic biological effects outside of the endpoints measured in a sub-chronic rat toxicity study. Substances with biological activity may require additional hazard characterization related to reproductive and developmental toxicity, or immunotoxicity. Considerations for allergenicity, biological effects in humans (e.g., effects on blood pressure), and synergistic effects with other media components also may be evaluated. […] Examples of category 3 components include recombinant proteins and animal serum.

[3] = Maximum estimated dietary exposure to media ingredients per 100 g serving; settings: assumption of complete transfer of media components to the finished product on a wt/wt basis
[4] = human dietary intake; cited from earlier work
[5] = SCH772984 1 uM plus 9-cis RA 200 nM, AM80 200 nM, AM580 100 nM, CH55 200 nM, TTNPB 200 nM, Fenretinide 200 nM
[6] = SCH772984 1 uM plus Caffeine 2 mM or Suramin 10 μM
[7] = cell culture media ingredient used during meat production

Compound: CC1=C(/C=C/C(C)=C\C=C\C(C)=C\C(=O)O)C(C)(C)CCC1 [9-cis retinoic acid]
- Fusion index in combination with ERK inhibitor vs ERK inhibitor alone [1, 5]: significantly increased the fusion index

Compound: CC1(C)CCC(C)(C)c2cc(NC(=O)c3ccc(C(=O)O)cc3)ccc21 [AM80]
- Fusion index in combination with ERK inhibitor vs ERK inhibitor alone [1, 5]: significantly increased the fusion index

Compound: CC1(C)CCC(C)(C)c2cc(C(=O)Nc3ccc(C(=O)O)cc3)ccc21 [AM580]
- Fusion index in combination with ERK inhibitor vs ERK inhibitor alone [1, 5]: significantly increased the fusion index

- Risk Assessment Category [2]: 1
- Maximum Estimated Exposure per 100 g serving [3]: 2000 mg
Compound: O=C1O[C@H]([C@@H](O)CO)C(O)=C1O [ASCORBIC ACID]

Compound: CC(C)(C)c1cc(C(=O)/C=C/c2ccc(C(=O)O)cc2)cc(C(C)(C)C)c1 [CH55]
- Fusion index in combination with ERK inhibitor vs ERK inhibitor alone [1, 5]: significantly increased the fusion index

Compound: C[N+](C)(C)CCO.[Cl-] [CHOLINE CHLORIDE]
- Risk Assessment Category [2]: 1
- Maximum Estimated Exposure per 100 g serving [3]: 52 mg

Compound: Cn1c(=O)c2c(ncn2C)n(C)c1=O [Caffeine]
- Fusion index in combination with ERK inhibitor vs ERK inhibitor alone [1, 6]: significantly increased the fusion index

Compound: O=C(O)CCCC[C@@H]1SC[C@@H]2NC(=O)N[C@@H]21 [D-BIOTIN]
- Risk Assessment Category [2]: 1
- Maximum Estimated Exposure per 100 g serving [3]: 4 mg

- Risk Assessment Category [2]: 1
Compound: O=C[C@H](O)[C@@H](O)[C@H](O)[C@H](O)CO [D-GLUCOSE]

- Risk Assessment Category [2]: 1
- Maximum Estimated Exposure per 100 g serving [3]: 60 mg
Compound: Nc1nc2ncc(CNc3ccc(C(=O)N[C@@H](CCC(=O)O)C(=O)O)cc3)nc2c(=O)[nH]1 [FOLIC ACID]

Compound: CC1=C(/C=C/C(C)=C/C=C/C(C)=C/C(=O)Nc2ccc(O)cc2)C(C)(C)CCC1 [Fenretinide]
- Fusion index in combination with ERK inhibitor vs ERK inhibitor alone [1, 5]: significantly increased the fusion index

- Risk Assessment Category [2]: 2
Compound: C[C@H](N)C(=O)O [L-ALANINE]

Compound: NC(=O)C[C@H](N)C(=O)O.O [L-ASPARAGINE-H20]
- Risk Assessment Category [2]: 2

Compound: Cl.N[C@@H](CS)C(=O)O.O [L-CYSTEINE HCL H20]
- Risk Assessment Category [2, 7]: 2

- Risk Assessment Category [2]: 2
Compound: Cl.Cl.N[C@@H](CSSC[C@H](N)C(=O)O)C(=O)O [L-CYSTINE 2HCL]

Compound: N[C@@H](CCC(=O)N[C@@H](CS)C(=O)NCC(=O)O)C(=O)O [L-GLUTATHIONE]
- Risk Assessment Category [2]: 2
- Maximum Estimated Exposure per 100 g serving [3]: 36 mg

Compound: Cl.N[C@@H](Cc1cnc[nH]1)C(=O)O.O [L-HISTIDINE-HCL-H20]
- Risk Assessment Category [2, 7]: 2

- Risk Assessment Category [2]: 2
Compound: CC[C@H](C)[C@H](N)C(=O)O [L-ISOLEUCINE]

Compound: Cl.NCCCC[C@H](N)C(=O)O [L-LYSINE-HCL]
- Risk Assessment Category [2, 7]: 2

- Risk Assessment Category [2]: 2
Compound: CSCC[C@H](N)C(=O)O [L-METHIONINE]

- Risk Assessment Category [2, 7]: 2
Compound: N[C@@H](Cc1ccccc1)C(=O)O [L-PHENYLALANINE]

- Risk Assessment Category [2]: 2
Compound: N[C@@H](CO)C(=O)O [L-SERINE]

- Risk Assessment Category [2]: 2
Compound: C[C@@H](O)[C@H](N)C(=O)O [L-THREONINE]

- Risk Assessment Category [2]: 2
Compound: N[C@@H](Cc1c[nH]c2ccccc12)C(=O)O [L-TRYPTOPHAN]

Compound: N[C@@H](Cc1ccc([O-])cc1)C(=O)[O-].O.O.[Na+].[Na+] [L-TYROSINE-2NA-2H20]
- Risk Assessment Category [2, 7]: 2

- Risk Assessment Category [2]: 2
Compound: CC(C)[C@H](N)C(=O)O [L-VALINE]

- Risk Assessment Category [2]: 1
- Maximum Estimated Exposure per 100 g serving [3]: 430 mg
Compound: O[C@H]1[C@H](O)[C@@H](O)[C@H](O)[C@@H](O)[C@H]1O [MYO-INOSITOL]

- Risk Assessment Category [2]: 1
Compound: Cc1ncc(CO)c(C=O)c1O.Cl [PYRIDOXAL-HCL]

Compound: Cc1ncc(CO)c(CO)c1O.Cl [PYRIDOXINE-HCL]
- Risk Assessment Category [2, 7]: 1
- Maximum Estimated Exposure per 100 g serving [3]: 25 mg

Compound: [Cl-].[Na+] [SODIUM CHLORIDE]
- Safe Reference Level for Human Dietary Intake (kind of level not given) [4]: 2.3 g/day

Compound: O.O.O.O.O.O.O.O.O.O=[Si]([O-])[O-].[Na+].[Na+] [SODIUM METASILICATE-9H2O]
- Risk Assessment Category [2]: 1
- Maximum Estimated Exposure per 100 g serving [3]: 1.6 mg

Compound: O.O=P([O-])(O)O.[Na+] [SODIUM PHOSPHATE MONOBASIC H20]
- Risk Assessment Category [2, 7]: 1
- Maximum Estimated Exposure per 100 g serving [3]: 1500 mg

Compound: Cc1ccc(C(=O)Nc2ccc(S(=O)(=O)O)c3cc(S(=O)(=O)O)cc(S(=O)(=O)O)c23)cc1NC(=O)c1cccc(NC(=O)Nc2cccc(C(=O)Nc3cc(C(=O)Nc4ccc(S(=O)(=O)O)c5cc(S(=O)(=O)O)cc(S(=O)(=O)O)c45)ccc3C)c2)c1 [Suramin]
- Fusion index in combination with ERK inhibitor vs ERK inhibitor alone [1, 6]: significantly increased the fusion index

Compound: C/C(=C\c1ccc(C(=O)O)cc1)c1ccc2c(c1)C(C)(C)CCC2(C)C [TTNPB]
- Fusion index in combination with ERK inhibitor vs ERK inhibitor alone [1, 5]: significantly increased the fusion index

Compound: N#CC(=C(/N)Sc1ccccc1N)/C(C#N)=C(\N)Sc1ccccc1N [U0126]
- Fusion ([1]; Differentiation media, 1 uM): 29%
- Fusion ([1]; Differentiation media, 10 uM): 47%
- Fusion ([1]; Proliferation media, 1 uM): 16%
- Fusion ([1]; Proliferation media, 10 uM): 7%

Compound: CNc1ccc2oc(C[C@H]3O[C@@]4(CC[C@H]3C)O[C@H]([C@H](C)C(=O)c3ccc[nH]3)[C@H](C)C[C@H]4C)nc2c1C(=O)O [calcimycin]
- Fusion index ([1]; ionophore 1 uM plus ERKi 1 uM): 94%

Compound: CCOC(=O)CCCCCCCCCCCN(C)C(=O)CO[C@H](C)[C@@H](C)OCC(=O)N(C)CCCCCCCCCCCC(=O)OCC [calcium ionophore I]
- Fusion index ([1]; ionophore 2 uM plus ERKi 1 uM): 89%

Compound: C[C@H](CCC(=O)O)C[C@H](C)C[C@H](C)C(=O)/C=C(\O)[C@H](C)C[C@H](C)C/C=C/[C@@H](C)[C@@H](O)[C@@H](C)[C@@H](O)C[C@@H]1CC[C@@](C)([C@H]2CC[C@@](C)([C@@H](C)O)O2)O1 [ionomycin]
- Fusion index ([1]; ionophore 2 uM plus ERKi 1 uM): 89%

Compound: BOVINE SERUM ALBUMIN: animal component of cell culture media
- Risk Assessment Category [2]: 3

Compound: FGF2 (FIBROBLAST GROWTH FACTOR-BASIC): growth factor of cell culture media
- Risk Assessment Category [2]: 3

Compound: IGF-1 (INSULIN-LIKE GROWTH FACTOR 1): growth factor of cell culture media
- Risk Assessment Category [2]: 3

Compound: PDGF-BB (PLATELET DERIVED GROWTH FACTOR-BB): growth factor of cell culture media
- Risk Assessment Category [2]: 3
